In brackets after ≈: the same amount, converted by molar mass.
Legend:
Type in all cases: functional
Candida albicans [1] = test: Antifungal activity against Candida albicans CPCC400616 assessed as fungal growth inhibition by CLSI based microdilution method
Candida albicans [2] = test: Antifungal activity against Candida albicans SC5314 assessed as fungal growth inhibition by CLSI based microdilution method
Candida parapsilosis = test: Antifungal activity against Candida parapsilosis assessed as fungal growth inhibition by CLSI based microdilution method; conditions: Lodderomyces parapsilosis
Nakaseomyces glabratus = test: Antifungal activity against Candida glabrata assessed as fungal growth inhibition by CLSI based microdilution method
Pichia kudriavzevii = test: Antifungal activity against Pichia kudriavzevii assessed as fungal growth inhibition by CLSI based microdilution method
Candida tropicalis = test: Antifungal activity against Candida tropicalis assessed as fungal growth inhibition by CLSI based microdilution method
Cryptococcus neoformans = test: Antifungal activity against Cryptococcus neoformans assessed as fungal growth inhibition by CLSI based microdilution method
Candida albicans [3] = test: Antifungal activity against fluconazole-resistant Candida albicans CaR assessed as fungal growth inhibition by CLSI based microdilution method
Candida albicans [4] = test: Antifungal activity against fluconazole-resistant Candida albicans 17# assessed as fungal growth inhibition by CLSI based microdilution method
Candida albicans [5] = test: Antifungal activity against fluconazole-resistant Candida albicans 632 assessed as fungal growth inhibition by CLSI based microdilution method
Candida albicans [6] = test: Antifungal activity against fluconazole-resistant Candida albicans 904 assessed as fungal growth inhibition by CLSI based microdilution method
Candida albicans [7] = test: Antifungal activity against fluconazole-resistant Candida albicans 901 assessed as fungal growth inhibition by CLSI based microdilution method

SMILES | MIC (Candida albicans [1]) [µg/mL] | MIC (Candida albicans [2]) [µg/mL] | MIC (Candida parapsilosis) [µg/mL] | MIC (Nakaseomyces glabratus) [µg/mL] | MIC (Pichia kudriavzevii) [µg/mL] | MIC (Candida tropicalis) [µg/mL] | MIC (Cryptococcus neoformans) [µg/mL] | MIC (Candida albicans [3]) [µg/mL] | MIC (Candida albicans [4]) [µg/mL] | MIC (Candida albicans [5]) [µg/mL] | MIC (Candida albicans [6]) [µg/mL] | MIC (Candida albicans [7]) [µg/mL]
O=c1oc2ccccc2cc1COC(Cn1cncn1)c1ccc(F)cc1F (stereo not given) | 8 (≈ 20.9 µM) | 0.25 (≈ 0.652 µM) | 2 (≈ 5.22 µM) | 8 (≈ 20.9 µM) | 16 (≈ 41.7 µM) | 64 (≈ 167 µM) | 32 (≈ 83.5 µM) | – | – | – | – | –
O=c1ccc2ccc(COC(Cn3cnnn3)c3ccc(F)cc3F)cc2o1 (stereo not given) | > 128 | > 128 | 128 (≈ 333 µM) | 64 (≈ 167 µM) | 32 (≈ 83.3 µM) | 64 (≈ 167 µM) | 8 (≈ 20.8 µM) | – | – | – | – | –
O=c1ccc2cc(COC(Cn3ccnc3)c3ccc(F)cc3F)ccc2o1 (stereo not given) | 0.5 (≈ 1.31 µM) | 0.25 (≈ 0.654 µM) | 2 (≈ 5.23 µM) | 16 (≈ 41.8 µM) | 8 (≈ 20.9 µM) | 2 (≈ 5.23 µM) | 32 (≈ 83.7 µM) | 64 (≈ 167 µM) | 4 (≈ 10.5 µM) | 64 (≈ 167 µM) | 32 (≈ 83.7 µM) | 32 (≈ 83.7 µM)
C[C@@H](c1ncncc1F)[C@](O)(Cn1cncn1)c1ccc(F)cc1F [VORICONAZOLE] | – | – | – | – | – | – | – | > 128 | 128 (≈ 366 µM) | 64 (≈ 183 µM) | > 128 | > 128
O=c1oc2ccc(F)cc2cc1COC(Cn1ccnc1)c1ccc(Cl)cc1Cl (stereo not given) | 0.5 (≈ 1.15 µM) | 0.25 (≈ 0.577 µM) | 0.5 (≈ 1.15 µM) | 2 (≈ 4.62 µM) | 2 (≈ 4.62 µM) | 64 (≈ 148 µM) | 0.5 (≈ 1.15 µM) | – | – | – | – | –
COc1cccc2cc(COC(Cn3ccnc3)c3ccc(F)cc3F)c(=O)oc12 (stereo not given) | 0.25 (≈ 0.606 µM) | 0.25 (≈ 0.606 µM) | 0.06 (≈ 0.145 µM) | 4 (≈ 9.7 µM) | 2 (≈ 4.85 µM) | 32 (≈ 77.6 µM) | 0.06 (≈ 0.145 µM) | – | – | – | – | –
O=c1ccc2cc(COC(Cn3cncn3)c3ccc(Cl)cc3Cl)ccc2o1 (stereo not given) | 4 (≈ 9.61 µM) | 0.25 (≈ 0.601 µM) | 2 (≈ 4.8 µM) | 32 (≈ 76.9 µM) | 16 (≈ 38.4 µM) | 32 (≈ 76.9 µM) | 32 (≈ 76.9 µM) | – | – | – | – | –
COc1cccc2cc(COC(Cn3ccnc3)c3ccc(Cl)cc3Cl)c(=O)oc12 (stereo not given) | 0.25 (≈ 0.561 µM) | 0.25 (≈ 0.561 µM) | 0.5 (≈ 1.12 µM) | 32 (≈ 71.9 µM) | 32 (≈ 71.9 µM) | 128 (≈ 287 µM) | 0.5 (≈ 1.12 µM) | – | – | – | – | –
O=c1oc2c(Cl)cc(Cl)cc2cc1COC(Cn1ccnc1)c1ccc(Cl)cc1Cl (stereo not given) | > 128 | 128 (≈ 264 µM) | > 128 | > 128 | > 128 | > 128 | 16 (≈ 33 µM) | – | – | – | – | –
O=c1oc2ccc(Cl)cc2cc1COC(Cn1ccnc1)c1ccc(F)cc1F (stereo not given) | 32 (≈ 76.8 µM) | 0.25 (≈ 0.6 µM) | 16 (≈ 38.4 µM) | 128 (≈ 307 µM) | 128 (≈ 307 µM) | 128 (≈ 307 µM) | 16 (≈ 38.4 µM) | – | – | – | – | –
O=c1ccc2cc(COC(Cn3cnnn3)c3ccc(Cl)cc3Cl)ccc2o1 (stereo not given) | 1 (≈ 2.4 µM) | 2 (≈ 4.79 µM) | 32 (≈ 76.7 µM) | 16 (≈ 38.3 µM) | 64 (≈ 153 µM) | 32 (≈ 76.7 µM) | 128 (≈ 307 µM) | – | – | – | – | –
O=c1oc2c(Cl)cc(Cl)cc2cc1COC(Cn1ccnc1)c1ccc(F)cc1 (stereo not given) | > 128 | > 128 | > 128 | > 128 | > 128 | > 128 | 128 (≈ 295 µM) | – | – | – | – | –
O=c1oc2ccccc2cc1COC(Cn1ccnn1)c1ccc(F)cc1F (stereo not given) | > 128 | 128 (≈ 334 µM) | > 128 | > 128 | 64 (≈ 167 µM) | > 128 | 64 (≈ 167 µM) | – | – | – | – | –
OB1OCc2cc(F)ccc21 [TAVABOROLE] | – | – | – | – | – | – | – | 16 (≈ 105 µM) | 32 (≈ 211 µM) | 16 (≈ 105 µM) | 16 (≈ 105 µM) | 32 (≈ 211 µM)
O=c1ccc2cc(COC(Cn3cncn3)c3ccc(F)cc3F)ccc2o1 (stereo not given) | 8 (≈ 20.9 µM) | 0.25 (≈ 0.652 µM) | 4 (≈ 10.4 µM) | 16 (≈ 41.7 µM) | 32 (≈ 83.5 µM) | 64 (≈ 167 µM) | 64 (≈ 167 µM) | – | – | – | – | –
O=c1oc2ccccc2cc1COC(Cn1ccnn1)c1ccc(Cl)cc1Cl (stereo not given) | 128 (≈ 307 µM) | 128 (≈ 307 µM) | > 128 | > 128 | 128 (≈ 307 µM) | > 128 | 32 (≈ 76.9 µM) | – | – | – | – | –
O=c1oc2ccc(F)cc2cc1COC(Cn1ccnc1)c1ccc(F)cc1F (stereo not given) | 1 (≈ 2.5 µM) | 1 (≈ 2.5 µM) | 0.5 (≈ 1.25 µM) | 2 (≈ 5 µM) | 4 (≈ 9.99 µM) | 8 (≈ 20 µM) | 0.5 (≈ 1.25 µM) | – | – | – | – | –
O=c1ccc2cc(COC(Cn3cnnn3)c3ccc(F)cc3F)ccc2o1 (stereo not given) | 1 (≈ 2.6 µM) | 2 (≈ 5.2 µM) | 16 (≈ 41.6 µM) | 16 (≈ 41.6 µM) | 128 (≈ 333 µM) | 0.5 (≈ 1.3 µM) | 64 (≈ 167 µM) | – | – | – | – | –
O=c1ccc2cc(COC(Cn3ccnn3)c3ccc(Cl)cc3Cl)ccc2o1 (stereo not given) | > 128 | 128 (≈ 307 µM) | 64 (≈ 154 µM) | 64 (≈ 154 µM) | 128 (≈ 307 µM) | 64 (≈ 154 µM) | 128 (≈ 307 µM) | – | – | – | – | –
O=c1ccc2ccc(COC(Cn3cnnn3)c3ccc(Cl)cc3Cl)cc2o1 (stereo not given) | > 128 | > 128 | 64 (≈ 153 µM) | 64 (≈ 153 µM) | > 128 | 128 (≈ 307 µM) | 32 (≈ 76.7 µM) | – | – | – | – | –
O=c1ccc2ccc(COC(Cn3ccnn3)c3ccc(F)cc3F)cc2o1 (stereo not given) | > 128 | > 128 | > 128 | 128 (≈ 334 µM) | > 128 | 4 (≈ 10.4 µM) | > 128 | – | – | – | – | –
O=c1oc2c(Cl)cc(Cl)cc2cc1COC(Cn1ccnc1)c1ccc(F)cc1F (stereo not given) | > 128 | > 128 | > 128 | > 128 | > 128 | > 128 | 64 (≈ 142 µM) | – | – | – | – | –
O=c1oc2ccc([N+](=O)[O-])cc2cc1COC(Cn1ccnc1)c1ccc(Cl)cc1Cl (stereo not given) | > 128 | 64 (≈ 139 µM) | > 128 | 128 (≈ 278 µM) | > 128 | > 128 | 128 (≈ 278 µM) | – | – | – | – | –
CCC(C)n1ncn(-c2ccc(N3CCN(c4ccc(OCC5COC(Cn6cncn6)(c6ccc(Cl)cc6Cl)O5)cc4)CC3)cc2)c1=O (stereo not given) [ITRACONAZOLE] | – | – | – | – | – | – | – | 64 (≈ 90.7 µM) | 128 (≈ 181 µM) | 64 (≈ 90.7 µM) | > 128 | > 128
O=c1oc2ccccc2cc1COC(Cn1cncn1)c1ccc(Cl)cc1Cl (stereo not given) | 4 (≈ 9.61 µM) | 0.25 (≈ 0.601 µM) | 4 (≈ 9.61 µM) | 8 (≈ 19.2 µM) | 32 (≈ 76.9 µM) | 16 (≈ 38.4 µM) | 16 (≈ 38.4 µM) | – | – | – | – | –
O=c1oc2ccc(Cl)cc2cc1COC(Cn1ccnc1)c1ccc(Cl)cc1Cl (stereo not given) | 16 (≈ 35.6 µM) | 0.25 (≈ 0.556 µM) | 16 (≈ 35.6 µM) | 128 (≈ 285 µM) | 128 (≈ 285 µM) | 128 (≈ 285 µM) | 16 (≈ 35.6 µM) | – | – | – | – | –
O=c1ccc2cc(COC(Cn3ccnn3)c3ccc(F)cc3F)ccc2o1 (stereo not given) | > 128 | > 128 | 128 (≈ 334 µM) | > 128 | > 128 | > 128 | > 128 | – | – | – | – | –
O=c1oc2ccc([N+](=O)[O-])cc2cc1COC(Cn1ccnc1)c1ccc(F)cc1F (stereo not given) | > 128 | > 128 | 64 (≈ 150 µM) | 32 (≈ 74.9 µM) | 128 (≈ 300 µM) | 128 (≈ 300 µM) | 64 (≈ 150 µM) | – | – | – | – | –
